Source: patent US9101569B2, “Methods for the treatment of insulin resistance” (UNIVERSITE DE GENEVE, priority 2010, dated 2015)

Key:
[1] = system: differentiated 3T3-L1 adipocytes; assay: Lipid metabolism in differentiated 3T3-L1 adipocytes in vitro; format: cell-based, Murine; conditions: 24 h incubation, 5 μM OT
Experimental: The in vitro effect of OT on lipid metabolism in differentiated 3T3-L1 adipocytes was assayed as follows. Murine 3T3-L1 fibroblasts were differentiated towards a […] phenotype as previously described (Olson et al., 1997, Mol. Cell. Biol., 2425-2435). In brief, cells were cultured in Dulbecco's modified eagle medium (DMEM) with 4.5 g/l glucose supplemented with 10% heat-inactivated depleted calf serum (DCS) at 37° C./8% CO2. Cells were induced to differentiate, two days post confluence, by sequential incubations with: DMEM 4.5 g/l glucose, 10% fetal bovine serum (FCS) containing 1 μg/ml insulin, 0.25 μM dexamethasone and 0.5 mM isobutylmethylxanthane (IBMX) for 4 days; DMEM 4.5 g/l glucose, 10% FCS containing insulin alone for an additional 4 days; DMEM 4.5 g/l glucose, 10% FCS for 3-4 days. Differentiation was considered achieved when more than 90% of cells display an accumulation of large lipid droplets in their cytoplasm.

HFD-induced obese rats = assay: Euglycemic-hyperinsulinemic clamps after i.c.v. OT infusion; format: in vivo, rat; conditions: 14-day i.c.v. 1.6 nmol/d
Experimental: Global and tissue-specific glucose utilization rates were measured by performing euglycemic-hyperinsulinemic clamps associated with the labeled 2-deoxyglucose technique as previously described (Vettor et al., 1994, Diabetologia, 37, 1202-1208). HFD-induced obese rats were overnight fasted and intraperitoneally anesthetized with Nembutal (75 mg/kg sodium pentobarbital; Abbott Laboratories, Chicago, Ill.). Total glucose utilization was measured during euglycemic-hyperinsulinemic clamps, as previously described (Vettor et al., 1994, above). At the end of the clamp, the in vivo insulin-stimulated glucose utilization index of individual tissues was determined by injecting a single bolus of labeled 2-deoxy-D-[1-3H]glucose (30 μCi; Amersham Biosciences UK, Little Chalfont, UK), as previously described (Vettor et al., 1994, above). Rats were killed by rapid decapitation, and tissues were rapidly removed, freeze-clamped, and stored at −80° C. Measurement of tissue concentration of 2-deoxy-d-[1-^3H]glucose-6-phosphate allowed calculation (Vettor et al., 1994, above) of the in vivo glucose utilization index of individual tissues and was expressed in ng/mg·min.

[2] = system: enzymes involved in lipid metabolism; assay: Tissue expression of lipid metabolism enzymes (real-time RT-PCR) after i.c.v. OT infusion; format: in vivo, rat
Experimental: To delineate the mechanisms responsible for the effect on peripheral metabolism, the expression of enzymes involved in lipid metabolism was analyzed in adipose tissues (epididymal white and interscapular brown adipose tissues). Total RNAs were extracted from frozen tissue using a single-step extraction with Trizol reagent (Sigma-Aldrich, Buchs, Switzerland). RNA integrity was assessed by electrophoresis on a 1% agarose gel and concentration was determined by spectrophotometry. An amount of 2.5 μg of total RNAs was used for RT using random hexamers (Microsynth, Geneva, Switzerland), dNTPs (Promega Corporation, Madison, Wis., USA), RNasin as an RNase inhibitor (Promega Corporation) and the Moloney Murine Leukemia Virus Reverse Transcriptase (M-MLV-RT) enzyme kit (Invitrogen, Basel, Switzerland). For quantitative PCR (qPCR), amplification of genes was performed from 6.25 or 12.5 ng cDNA, using the SYBR® green PCR Master Mix (Applied Biosystems, Warrington, UK) and an ABI7500 machine (Applied Biosystems, Foster City, Calif.). All the primers were designed (FIG. 9, Table 1) with the PrimerExpress software (http://phym.unige.ch/) and used at a concentration of 200 to 300 nM for qPCR. Results were normalized to the expression levels of the housekeeping gene, ribosomal protein S29 (RPS29).

[3] = interscapular brown adipose tissue (BAT), i.c.v. OT

## CC[C@H](C)[C@@H]1NC(=O)[C@H](Cc2ccc(O)cc2)NC(=O)[C@@H](N)CSSC[C@@H](C(=O)N2CCC[C@H]2C(=O)N[C@@H](CC(C)C)C(=O)NCC(N)=O)NC(=O)[C@H](CC(N)=O)NC(=O)[C@H](CCC(N)=O)NC1=O [OT, Cys-Tyr-Ile-Gln-Asn-Cys-Pro-Leu-Gly (SEQ ID NO: 1)]
[1]
  OEA content: increased
  PPAR-alpha mRNA expression: stimulatory effect
  mRNA expression of all the lipid metabolism-related genes affected by central OT infusion: increased
[1]; relative to effect in centrally infused rats
  Scd1 mRNA expression: less marked
HFD-induced obese rats
  glucose uptake in epididymal WAT: significant increase
  glucose uptake in inguinal WAT: significant increase
HFD-induced obese rats; compared to saline
  glucose infusion rate (GIR): significant increases
  glucose utilization index, red gastrocnemius: significant increases
  glucose utilization index, red quadriceps: significant increases
  glucose utilization index, soleus: significant increases
[2]; BAT, OT infusion (16 nmol/d experiment)
  mRNA expression of PPAR-alpha and its target genes: significantly increased
[2]; eWAT, i.c.v. 1.6 nmol/d
  Acaca mRNA expression: did not modify
  Acadm mRNA expression: increased
  Acox1 mRNA expression: increased
  Dgat1 mRNA expression: did not modify
  Ehhadh mRNA expression: increased
  Fasn mRNA expression: did not modify
  HSL mRNA expression: increased
  Lpl mRNA expression: increase
  Pnpla2 mRNA expression: increased
  Scd1 mRNA expression: marked increase
  Ucp3 mRNA expression: enhanced
[2]; eWAT, i.c.v. 16 nmol/d
  PPAR-alpha mRNA: did not modify
[2]; eWAT, i.c.v. 16 nmol/d, food intake-independent
  expression of PPAR-alpha target genes (Acadm, Acox1, Ehhadh, Ucp3): increases
[2]; i.c.v. 1.6 nmol/d (lower dose)
  stimulatory effect on Scd1 mRNA expression: 4.2 folds
[2]; i.c.v. 16 nmol/d
  stimulatory effect on Scd1 mRNA expression: 5.6 folds
[2]; [3]
  PPAR-alpha expression: significantly increased
  expression of the main enzymes involved in fatty acid β-oxidation: significantly increased
[2]; skeletal muscle, central OT infusion
  expression of genes involved in fatty acid β-oxidation: did not modify
